{"source": "patent US20240410904A1", "about": "“NON-INVASIVE MONITORING OF LIVER DISEASE TREATMENT” (INVENTIVA, priority 2023, published 2024)", "key": {"[1]": {"test_system": "adult patients diagnosed with highly active, non-cirrhotic NASH", "conditions": "background statement, cited from earlier work"}, "[2]": {"test_system": "adult patients diagnosed with highly active, non-cirrhotic NASH", "assay": "NATIVE phase 2b trial of lanifibranor, liver histology response at Week 24", "type": "in vivo, human", "conditions": "once daily orally, 24 weeks", "from_the_text": "Patients were eligible for inclusion if they were 18 years of age or older and had non-cirrhotic NASH (the diagnosis of which required a Steatosis, Activity, Fibrosis [SAF] grade of 1 or higher for steatosis, hepatocellular ballooning and lobular inflammation on liver biopsy). A score of 3 or higher on the SAF-A (the activity part of the SAF scoring system that incorporates the scores for hepatocellular ballooning and lobular inflammation) was also a criterion for eligibility. Patients with stage F4 fibrosis, classified according to the criteria of both the SAF and NASH Clinical Research Network (NASH CRN) were excluded from the study. Patients were randomly assigned in a 1:1:1 ratio to receive 800 or 1200 mg lanifibranor or placebo once daily for 24 weeks. Liver biopsy was obtained at baseline and at the end of treatment. The primary end point of the NATIVE study was defined as a decrease of at least 2 points from baseline to Week 24 (end of treatment) in the SAF-A score and no worsening of fibrosis. Secondary histologic end points included resolution of NASH (defined as a ballooning grade of 0 and a lobular inflammation grade of ≤1) and no worsening of fibrosis; improvement in fibrosis of at least 1 stage and no worsening of NASH (i.e., no worsening in either steatosis, ballooning, or lobular inflammation); Nonalcoholic Fatty Liver Disease Activity Score (NAS) improvement (defined as a decrease of ≥2 points from baseline to week 24 in the NAS) and no worsening of fibrosis; resolution of NASH and an improvement in fibrosis stage of at least 1 (as a composite end point); change in scores for the components of the SAF and NASH CRN scoring system (steatosis, activity, inflammation, ballooning, and fibrosis); and change in the modified Ishak score. Non-histologic secondary endpoints included changes in a panel of serum biomarkers related to metabolism, inflammation tissue injury and fibrosis. Patients receiving lanifibranor 800 or 1200 mg per day were pooled and those with pre- and post-treatment liver biopsies were selected (n=142). Post-treatment biopsies were considered if they occurred within 14 days following last lanifibranor intake. The following histological endpoint according to NASH-CRN criteria was considered: NASH resolution without worsening of fibrosis (E2). In the NATIVE trial, from February 2017 through July 2019, 247 patients were randomly assigned to receive 1200 mg of lanifibranor (N=83), 800 mg of lanifibranor (N=83), or placebo (N=81) orally once daily for 6 months. A total of 228 patients completed the trial, 77 in each lanifibranor group and 74 in the placebo group. Reasons for discontinuation of the trial regimen have been reported elsewhere. Finally, among the 154 patients treated with lanifibranor at both doses, 142 patients (N=70 and N=72 patients treated with 800 or 1200 mg per day, respectively) presented with pre- and post-treatment liver biopsies within the time frame required for the present work and were included in the analysis population for signature development."}, "[3]": {"conditions": "800 and 1200 mg per day pooled, analysis population N=142"}}}
{"compound": "O=C(O)CCCc1cc2cc(Cl)ccc2n1S(=O)(=O)c1ccc2ncsc2c1", "note": "[lanifibranor, 4-[1-(1,3-benzothiazol-6-ylsulfonyl)-5-chloroindol-2-yl]butanoic acid]", "values": [{"measurement": "Percentage of patients with a decrease of at least 2 points in the SAF-A score without worsening of fibrosis, compared to placebo", "setting": "[1]; daily dose of 1200 mg, patients with active NASH", "result": "significantly higher"}, {"measurement": "Secondary endpoints (NASH resolution and fibrosis improvement, NASH resolution without worsening of fibrosis, improvement of fibrosis without worsening of NASH; NASH-CRN), compared to placebo", "setting": "[1]; lanifibranor groups", "result": "more favorable than placebo"}, {"measurement": "Resolution of NASH without worsening of liver fibrosis (E2), number of patients", "setting": "[2]; 800 mg per day, N=70", "result": 27, "unit": "patients"}, {"measurement": "Resolution of NASH without worsening of liver fibrosis (E2), percentage of patients", "setting": "[2]; 800 mg per day, N=70", "result": 39, "unit": "%"}, {"measurement": "Resolution of NASH without worsening of liver fibrosis (E2), number of patients", "setting": "[2]; 1200 mg per day, N=72", "result": 36, "unit": "patients"}, {"measurement": "Resolution of NASH without worsening of liver fibrosis (E2), percentage of patients", "setting": "[2]; 1200 mg per day, N=72", "result": 50, "unit": "%"}, {"measurement": "Resolution of NASH without worsening of liver fibrosis (E2), number of patients", "setting": "[2]; [3]", "result": 63, "unit": "patients"}, {"measurement": "Resolution of NASH without worsening of liver fibrosis (E2), percentage of patients", "setting": "[2]; [3]", "result": 44, "unit": "%"}]}
